In one assay the target is T1, RET(KD: 658-1114 G810R) (Homo sapiens, UniProt P07949, G810R).
T1 construct: 658-1114; expressed in transfected cells; host or cells: 293T.165 (293T cells, generated in-house)
T1 sequence (P07949 658-1114 G810R): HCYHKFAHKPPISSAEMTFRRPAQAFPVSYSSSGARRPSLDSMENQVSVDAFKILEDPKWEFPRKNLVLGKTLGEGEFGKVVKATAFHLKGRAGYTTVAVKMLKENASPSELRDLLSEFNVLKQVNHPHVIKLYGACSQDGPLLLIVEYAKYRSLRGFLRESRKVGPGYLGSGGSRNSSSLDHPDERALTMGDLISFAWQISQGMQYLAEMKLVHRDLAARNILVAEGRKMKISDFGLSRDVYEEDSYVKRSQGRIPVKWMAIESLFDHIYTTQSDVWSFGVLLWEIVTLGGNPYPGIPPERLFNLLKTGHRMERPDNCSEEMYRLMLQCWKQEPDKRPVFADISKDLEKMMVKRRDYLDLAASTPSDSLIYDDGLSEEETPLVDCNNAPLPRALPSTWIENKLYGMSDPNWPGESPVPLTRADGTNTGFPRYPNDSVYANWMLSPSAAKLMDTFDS
The experiment in a line: HiBiT-Degradation, RET G810R degradation assay (Nano-Glo HiBiT Lytic), 293T.165 cells. The assay is classed as cell-based. As to conditions: for Emax / DC50: 6.0 hours; for Emax: % remaining protein, read-out: 293T.165 RET(KD: 658-1114 G810R) 6.0 hours (Emax); for DC50: half-maximal degradation concentration, read-out: 293T.165 RET(KD: 658-1114 G810R) 6.0 hours (DC50). In a few lines: (§1)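 HEK293T lines expressing HiBiT-tagged RET kinase domain, wild-type (293T.144) or G810R (293T.165), treated 6 h in duplicate, 11-point half-log series from 10 μM top. Lytic HiBiT luminescence read; DC50 and Emax (% protein remaining) from dose-response curves.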
Background: HiBiT is a short tag that completes a luciferase, so light tracks the accessible tagged protein.

Another assay concerns the target T2, RET (658-1114) (Homo sapiens, UniProt P07949).
T2 construct: 658-1114; expressed in transfected cells; host or cells: 293T.144 (293T cells, generated in-house)
T2 sequence (P07949 658-1114): T1 sequence (P07949 658-1114 G810R) with R153G
The experiment in a line: HiBiT-Degradation, RET wild-type degradation assay (Nano-Glo HiBiT Lytic), 293T.144 cells. The assay is classed as cell-based. The conditions noted are these: for Emax / DC50: 6.0 hours; for Emax: % remaining protein, read-out: 293T.144 RET (658-1114) 6.0 hours (Emax); for DC50: half-maximal degradation concentration, read-out: 293T.144 RET (658-1114) 6.0 hours (DC50). The procedure, abridged: as §1

This note sets out measurements from US12661410B2, “Compounds for targeted degradation of RET” (C4 Therapeutics, Inc., priority 2020, dated 2026).

Broadly, the Emax is the size of the effect at its maximum, as opposed to the concentration needed. One may read the DC50 as the midpoint of the concentration-degradation curve.

Each structure is given as a SMILES string. Numbering of substitutions follows the chain as printed.

As to `CCC1(C(=O)NC(C)C)CCN(c2ccc(-c3nc(-c4cnn(C5CCN(C(=O)CC6(O)CCN(c7ccc(NC8CCC(=O)NC8=O)cc7C(F)F)CC6)CC5)c4)cn4ncc(C#N)c34)cn2)CC1` (stereo not drawn) [Compound 96, 1-[5-[3-cyano-6-[1-[1-[2-[1-[2-(difluoromethyl)-4-[(2,6-dioxo-3-piperidyl)amino]phenyl]-4-hydroxy-4-piperidyl]acetyl]-4-piperidyl]pyrazol-4-yl]pyrazolo[1,5-a]pyrazin-4-yl]-2-pyridyl]-4-ethyl-N-isopropyl-piperidine-4-carboxamide], at RET(KD: 658-1114 G810R), the “293T.165 RET(KD: 658-1114 G810R) 6.0 hours (IP) [nM]” value was “+++ (<100 nM = +++)”, the maximal response (Emax) is below 50% and the 50% degradation concentration (DC50) is below 100 nM. At RET (658-1114), the “293T.144 RET (658-1114) 6.0 hours (IP) [nM]” value (“293T.144 RET” for short) is “++++ (<50 nM = ++++)”, the maximum response (Emax) was below 30% and the half-maximal degradation concentration (DC50) is below 50 nM.

Turning to `CCC1(C(=O)NC(C)C)CCN(c2ccc(-c3nc(-c4cnn(C5CCN(C(=O)CC6(O)CC7(CN(c8ccc(NC9CCC(=O)NC9=O)cc8F)C7)C6)CC5)c4)cn4ncc(C#N)c34)cn2)CC1` (stereo not drawn) [Compound 97, 1-[5-[3-cyano-6-[1-[1-[2-[2-[4-[(2,6-dioxo-3-piperidyl)amino]-2-fluoro-phenyl]-6-hydroxy-2-azaspiro[3.3]heptan-6-yl]acetyl]-4-piperidyl]pyrazol-4-yl]pyrazolo[1,5-a]pyrazin-4-yl]-2-pyridyl]-4-ethyl-N-isopropyl-piperidine-4-carboxamide], at RET(KD: 658-1114 G810R), the “293T.165 RET(KD: 658-1114 G810R) 6.0 hours (IP) [nM]” value is “++++ (<50 nM = ++++)”, the Emax is below 50% and the DC50 was below 100 nM. In addition, at RET (658-1114), the “293T.144 RET” value was “++++ (<50 nM = ++++)”, the maximal effect (Emax) is below 30% and the DC50 was below 50 nM.

`CCC1(C(=O)Nc2ccccc2)CCN(c2ccc(-c3nc(-c4cnn(C5CCN(C(=O)CC6(O)CCN(c7ccc(NC8CCC(=O)NC8=O)cc7Cl)CC6)CC5)c4)cn4ncc(C#N)c34)cn2)CC1` (stereo not drawn) [Compound 98, 1-[5-[6-[1-[1-[2-[1-[2-chloro-4-[(2,6-dioxo-3-piperidyl)amino]phenyl]-4-hydroxy-4-piperidyl]acetyl]-4-piperidyl]pyrazol-4-yl]-3-cyano-pyrazolo[1,5-a]pyrazin-4-yl]-2-pyridyl]-4-ethyl-N-phenyl-piperidine-4-carboxamide]: at RET(KD: 658-1114 G810R), the “293T.165 RET(KD: 658-1114 G810R) 6.0 hours (IP) [nM]” value is “++++ (<50 nM = ++++)”, the maximum response (Emax) was below 30% and the 50% degradation concentration (DC50) was below 100 nM. Further, at RET (658-1114), the “293T.144 RET” value is recorded as “++++ (<50 nM = ++++)”, the Emax is below 30% and the DC50 was below 50 nM.

On to `CCC1(C(=O)Nc2ccccc2)CCN(c2ccc(-c3nc(-c4cnn(C5CCN(C(=O)CC6(O)CCN(c7ccc(NC8CCC(=O)NC8=O)cc7F)CC6)CC5)c4)cn4ncc(C#N)c34)cn2)CC1` (stereo not drawn) [Compound 99, 1-[5-[3-cyano-6-[1-[1-[2-[1-[4-[(2,6-dioxo-3-piperidyl)amino]-2-fluoro-phenyl]-4-hydroxy-4-piperidyl]acetyl]-4-piperidyl]pyrazol-4-yl]pyrazolo[1,5-a]pyrazin-4-yl]-2-pyridyl]-4-ethyl-N-phenyl-piperidine-4-carboxamide], for which, at RET(KD: 658-1114 G810R), the “293T.165 RET(KD: 658-1114 G810R) 6.0 hours (IP) [nM]” value is on record as “++++ (<50 nM = ++++)”, the maximum response (Emax) was below 30% and the DC50 is below 50 nM. Moreover, on RET (658-1114), the “293T.144 RET” value is “++++ (<50 nM = ++++)”, the Emax is below 30% and the DC50 is below 50 nM.

Take `CCC1(C(=O)Nc2ccc(F)cc2)CCN(c2ccc(-c3nc(-c4cnn(C5CCN(C(=O)CC6(O)CCN(c7ccc(NC8CCC(=O)NC8=O)cc7Cl)CC6)CC5)c4)cn4ncc(C#N)c34)cn2)CC1` (stereo not drawn) [Compound 100, 1-[5-[6-[1-[1-[2-[1-[2-chloro-4-[(2,6-dioxo-3-piperidyl)amino]phenyl]-4-hydroxy-4-piperidyl]acetyl]-4-piperidyl]pyrazol-4-yl]-3-cyano-pyrazolo[1,5-a]pyrazin-4-yl]-2-pyridyl]-4-ethyl-N-(4-fluorophenyl)piperidine-4-carboxamide]: at RET(KD: 658-1114 G810R), the “293T.165 RET(KD: 658-1114 G810R) 6.0 hours (IP) [nM]” value was “++++ (<50 nM = ++++)”, the Emax is below 30% and the 50% degradation concentration (DC50) is below 100 nM. At RET (658-1114), the “293T.144 RET” value is reported as “++++ (<50 nM = ++++)”, the Emax was below 30% and the 50% degradation concentration (DC50) was below 50 nM.

For `CCC1(C(=O)Nc2ccc(F)cc2)CCN(c2ccc(-c3nc(-c4cnn(C5CCN(C(=O)CC6(O)CCN(c7ccc(NC8CCC(=O)NC8=O)cc7F)CC6)CC5)c4)cn4ncc(C#N)c34)cn2)CC1` (stereo not drawn) [Compound 101, 1-[5-[3-cyano-6-[1-[1-[2-[1-[4-[(2,6-dioxo-3-piperidyl)amino]-2-fluoro-phenyl]-4-hydroxy-4-piperidyl]acetyl]-4-piperidyl]pyrazol-4-yl]pyrazolo[1,5-a]pyrazin-4-yl]-2-pyridyl]-4-ethyl-N-(4-fluorophenyl)piperidine-4-carboxamide], on RET(KD: 658-1114 G810R), the “293T.165 RET(KD: 658-1114 G810R) 6.0 hours (IP) [nM]” value was “++++ (<50 nM = ++++)”, the Emax was below 30% and the 50% degradation concentration (DC50) was below 50 nM. Further, at RET (658-1114), the “293T.144 RET” value is given as “++++ (<50 nM = ++++)”, the maximal response (Emax) is below 30% and the DC50 is below 50 nM.

Turning to `CCC1(C(=O)NC(C)(C)C)CCN(c2ccc(-c3nc(-c4cnn(C5CCN(C(=O)CC6(O)CCN(c7ccc(NC8CCC(=O)NC8=O)cc7Cl)CC6)CC5)c4)cn4ncc(C#N)c34)cn2)CC1` (stereo not drawn) [Compound 102, N-tert-butyl-1-[5-[6-[1-[1-[2-[1-[2-chloro-4-[(2,6-dioxo-3-piperidyl)amino]phenyl]-4-hydroxy-4-piperidyl]acetyl]-4-piperidyl]pyrazol-4-yl]-3-cyano-pyrazolo[1,5-a]pyrazin-4-yl]-2-pyridyl]-4-ethyl-piperidine-4-carboxamide], on RET(KD: 658-1114 G810R), the “293T.165 RET(KD: 658-1114 G810R) 6.0 hours (IP) [nM]” value is “++++ (<50 nM = ++++)”, the maximal effect (Emax) was below 30% and the 50% degradation concentration (DC50) is below 50 nM. Besides, on RET (658-1114), the “293T.144 RET” value is given as “++++ (<50 nM = ++++)”, the Emax was below 30% and the DC50 was below 50 nM.

`CCC1(C(=O)NC(C)(C)C)CCN(c2ccc(-c3nc(-c4cnn(C5CCN(C(=O)CC6(O)CCN(c7ccc(NC8CCC(=O)NC8=O)cc7F)CC6)CC5)c4)cn4ncc(C#N)c34)cn2)CC1` (stereo not drawn) [Compound 103, N-tert-butyl-1-[5-[3-cyano-6-[1-[1-[2-[1-[4-[(2,6-dioxo-3-piperidyl)amino]-2-fluoro-phenyl]-4-hydroxy-4-piperidyl]acetyl]-4-piperidyl]pyrazol-4-yl]pyrazolo[1,5-a]pyrazin-4-yl]-2-pyridyl]-4-ethyl-piperidine-4-carboxamide]: at RET(KD: 658-1114 G810R), the “293T.165 RET(KD: 658-1114 G810R) 6.0 hours (IP) [nM]” value was “++++ (<50 nM = ++++)”, the maximal response (Emax) was below 30% and the DC50 was below 50 nM. Further, on RET (658-1114), the “293T.144 RET” value is “++++ (<50 nM = ++++)”, the maximal response (Emax) was below 30% and the half-maximal degradation concentration (DC50) is below 50 nM.

Turning to `CC1(c2ncccn2)CCN(c2ccc(-c3nc(-c4cnn(C5CCN(C(=O)CC6(O)CCN(c7ccc(NC8CCC(=O)NC8=O)cc7F)CC6)CC5)c4)cn4ncc(C#N)c34)cn2)CC1` (stereo not drawn) [Compound 104, 6-[1-[1-[2-[1-[4-[(2,6-dioxo-3-piperidyl)amino]-2-fluoro-phenyl]-4-hydroxy-4-piperidyl]acetyl]-4-piperidyl]pyrazol-4-yl]-4-[6-(4-methyl-4-pyrimidin-2-yl-1-piperidyl)-3-pyridyl]pyrazolo[1,5-a]pyrazine-3-carbonitrile], at RET(KD: 658-1114 G810R), the “293T.165 RET(KD: 658-1114 G810R) 6.0 hours (IP) [nM]” value is “++++ (<50 nM = ++++)”, the maximal response (Emax) is below 30% and the DC50 was below 50 nM. At RET (658-1114), the “293T.144 RET” value is reported as “++++ (<50 nM = ++++)”, the maximal response (Emax) was below 30% and the 50% degradation concentration (DC50) is below 50 nM.
